Results published in patent publication US10597388B2, “Pyridazinone herbicides” (FMC CORPORATION, priority 2014, dated 2020).

Legend:
Test in all cases: Test D controlled growth environment herbicide test, pre- and postemergence
Assay type in all cases: in vivo
[1] = system: barley, winter (winter barley, Hordeum vulgare)
In short: (§1)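 Rating is visual, 0–100 scale (100 = complete control), made against untreated plants 14–21 d after treatment in controlled growth conditions. Postemergence sprays went onto 1- to 4-leaf plants in peat medium; preemergence sprays onto silt loam after sowing; formulation included a surfactant.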

[2] = system: ryegrass, Italian (Italian ryegrass, Lolium multiflorum)
In short: as §1

[3] = system: speedwell (bird's-eye speedwell, Veronica persica)
In short: as §1

[4] = system: lambsquarters (Chenopodium album)
In short: as §1

[5] = system: galium (catchweed bedstraw, Galium aparine)
In short: as §1

[6] = system: buckwheat, wild (wild buckwheat, Polygonum convolvulus)
In short: as §1

[7] = system: chickweed (common chickweed, Stellaria media)
In short: as §1

[8] = system: field poppy (Papaver rhoeas)
In short: as §1

[9] = system: oilseed rape (Brassica napus)
In short: as §1

[10] = system: canarygrass (Phalaris minor)
In short: as §1

[11] = system: blackgrass (Alopecurus myosuroides)
In short: as §1

[12] = system: bromegrass, downy (downy bromegrass, Bromus tectorum)
In short: as §1

[13] = system: chamomile (scentless chamomile, Matricaria inodora)
In short: as §1

[14] = Postemergence, 31 g ai/ha, scale 0 to 100 (0 no effect, 100 complete control)
[15] = Postemergence, 125 g ai/ha, visual rating on scale 0 (no effect) to 100 (complete control), 14 to 21 d
[16] = Postemergence, 250 g ai/ha, scale 0 to 100 (0 no effect, 100 complete control)
[17] = Preemergence, 62 g ai/ha, scale 0 to 100 (0 no effect, 100 complete control)
[18] = Preemergence, 125 g ai/ha, scale 0 to 100 (0 no effect, 100 complete control)
[19] = Preemergence, 250 g ai/ha, scale 0 to 100 (0 no effect, 100 complete control)
[20] = postemergence, 62 g ai/ha, scale 0 to 100, 0 no effect, 100 complete control

CC(=O)Oc1c(C)nn(C)c(=O)c1-c1ccc(F)c2ccccc12 [Compound 90]
35: Plant response rating, Barley, Winter [1, 16] | Plant response rating, Blackgrass [11, 17] | Plant response rating, Blackgrass [11, 20]
100: Plant response rating, Ryegrass, Italian [2, 16] | Plant response rating (scale of 0 to 100), Ryegrass, Italian ([2]; Preemergence, 31 g ai/ha) | Plant response rating (scale of 0 to 100), Ryegrass, Italian ([2]; Preemergence, 62 g ai/ha) | Plant response rating, Ryegrass, Italian [2, 18] | Plant response rating, Ryegrass, Italian [2, 19] | Speedwell plant response rating [3, 14] | Plant response rating, Speedwell [3, 15] | Plant response rating, Speedwell [3, 16] | Plant response rating (scale of 0 to 100), Speedwell ([3]; Preemergence, 31 g ai/ha) | Plant response rating (scale of 0 to 100), Speedwell ([3]; Preemergence, 62 g ai/ha) | Plant response rating, Speedwell [3, 18] | Plant response rating, Speedwell [3, 19] | Plant response rating, Speedwell [3, 20] | Plant response rating, Lambsquarters [4, 15] | Plant response rating, Lambsquarters [4, 16] | Plant response rating, Lambsquarters [4, 19] | Plant response rating, Galium [5, 15] | Plant response rating, Galium [5, 16] | Plant response rating, Galium [5, 20] | Plant response rating, Buckwheat, Wild [6, 15] | Plant response rating, Buckwheat, Wild [6, 16] | Plant response rating, Chickweed [7, 16] | Plant response rating (scale of 0 to 100), Chickweed ([7]; Preemergence, 31 g ai/ha) | Plant response rating, Chickweed [7, 18] | Plant response rating, Chickweed [7, 19] | Plant response rating (scale of 0 to 100), Field Poppy ([8]; Preemergence, 62 g ai/ha) | Plant response rating, Field Poppy [8, 18] | Plant response rating, Field Poppy [8, 19] | Plant response rating, Chamomile [13, 16] | Plant response rating (scale of 0 to 100), Chamomile ([13]; Preemergence, 31 g ai/ha) | Plant response rating (scale of 0 to 100), Chamomile ([13]; Preemergence, 62 g ai/ha) | Plant response rating, Chamomile [13, 18] | Plant response rating, Chamomile [13, 19]
45: Plant response rating, Canarygrass [10, 20] | Plant response rating, Blackgrass [11, 18]
80: Buckwheat, Wild plant response rating [6, 14] | Plant response rating, Buckwheat, Wild [6, 19] | Chickweed plant response rating [7, 14]
5: Plant response rating, Oilseed Rape [9, 20]
95: Plant response rating, Ryegrass, Italian [2, 15] | Plant response rating, Galium [5, 19] | Plant response rating, Canarygrass [10, 19] | Plant response rating, Bromegrass, Downy [12, 19]
85: Plant response rating, Lambsquarters [4, 18] | Plant response rating, Galium [5, 18] | Plant response rating, Canarygrass [10, 18]
60: Plant response rating, Blackgrass [11, 19]
55: Plant response rating, Blackgrass [11, 15] | Plant response rating, Bromegrass, Downy [12, 16] | Plant response rating, Bromegrass, Downy [12, 18]
70: Plant response rating, Field Poppy [8, 20] | Plant response rating, Oilseed Rape [9, 16] | Chamomile plant response rating [13, 14]
25: Plant response rating, Barley, Winter [1, 15] | Canarygrass plant response rating [10, 14] | Plant response rating (scale of 0 to 100), Blackgrass ([11]; Preemergence, 31 g ai/ha)
30: Plant response rating, Barley, Winter [1, 19] | Plant response rating, Bromegrass, Downy [12, 20]
75: Ryegrass, Italian plant response rating [2, 14] | Plant response rating (scale of 0 to 100), Galium ([5]; Preemergence, 31 g ai/ha) | Plant response rating (scale of 0 to 100), Galium ([5]; Preemergence, 62 g ai/ha) | Plant response rating, Field Poppy [8, 15] | Plant response rating, Canarygrass [10, 15] | Plant response rating, Canarygrass [10, 16] | Plant response rating (scale of 0 to 100), Canarygrass ([10]; Preemergence, 62 g ai/ha) | Plant response rating, Chamomile [13, 20]
50: Plant response rating (scale of 0 to 100), Canarygrass ([10]; Preemergence, 31 g ai/ha)
40: Plant response rating, Buckwheat, Wild [6, 18] | Plant response rating, Bromegrass, Downy [12, 15]
65: Field Poppy plant response rating [8, 14] | Plant response rating, Blackgrass [11, 16]
98: Plant response rating (scale of 0 to 100), Lambsquarters ([4]; Preemergence, 62 g ai/ha) | Galium plant response rating [5, 14] | Plant response rating, Chickweed [7, 15] | Plant response rating, Chamomile [13, 15]
20: Bromegrass, Downy plant response rating [12, 14] | Plant response rating, Bromegrass, Downy [12, 17]
15: Plant response rating, Barley, Winter [1, 18] | Plant response rating, Barley, Winter [1, 20] | Plant response rating (scale of 0 to 100), Buckwheat, Wild ([6]; Preemergence, 31 g ai/ha) | Plant response rating (scale of 0 to 100), Field Poppy ([8]; Preemergence, 31 g ai/ha) | Plant response rating, Oilseed Rape [9, 15] | Blackgrass plant response rating [11, 14] | Plant response rating (scale of 0 to 100), Bromegrass, Downy ([12]; Preemergence, 31 g ai/ha)
90: Plant response rating, Ryegrass, Italian [2, 20] | Lambsquarters plant response rating [4, 14] | Plant response rating (scale of 0 to 100), Lambsquarters ([4]; Preemergence, 31 g ai/ha) | Plant response rating, Lambsquarters [4, 20] | Plant response rating, Buckwheat, Wild [6, 20] | Plant response rating, Chickweed [7, 20] | Plant response rating, Field Poppy [8, 16]
0: Barley, Winter plant response rating [1, 14] | Plant response rating (scale of 0 to 100), Barley, Winter ([1]; Preemergence, 31 g ai/ha) | Plant response rating, Barley, Winter [1, 17] | Oilseed Rape plant response rating [9, 14] | Plant response rating (scale of 0 to 100), Oilseed Rape ([9]; Preemergence, 31 g ai/ha) | Plant response rating (scale of 0 to 100), Oilseed Rape ([9]; Preemergence, 62 g ai/ha) | Plant response rating, Oilseed Rape [9, 18] | Plant response rating, Oilseed Rape [9, 19]
